Assay: DPPH radical scavenging antioxidant test
Assay type: biochemical
Settings: 517 nm; for Inhibition (radical scavenging inhibition): 0.2 mL DPPH (0.75 mM), compound 3 μM in ethanol, 30 min incubation in the dark
Procedure: The antioxidant properties of the 8-[(2-hydroxynaphthalen-1-yl)diazenyl]naphthalene-1,3-disulfonic acid were studied by adding 0.2 mL DPPH (0.75 mM)) to compound 8-[(2-hydroxynaphthalen-1-yl)diazenyl]naphthalene-1,3-disulfonic acid (III) (3 μM) in ethanol. After 30 min of incubation in the dark, the absorbance was read against a blank at 517 nm. Ascorbic acid (vitamin C) was used as standard antioxidants (positive control). A blank sample was prepared by 0.2 ml of DPPH in 3 ml ethanol. A negative control sample was run using ethanol instead of the sample. The radical scavenging inhibition was calculated using the following equation: […]
The antioxidant activity for the synthesized compound is listed in Table 1, using Vitamin C as a reference.

SMILES | Inhibition (radical scavenging inhibition) [%] | antioxidant potential compared to vitamin C (DPPH in vitro test, vitamin C as positive control)
O=C1O[C@H]([C@@H](O)CO)C(O)=C1O [vit c, Ascorbic acid, reference compound] | 74 | –
O=S(=O)(O)c1cc(S(=O)(=O)O)c2c(/N=N/c3c(O)ccc4ccccc34)cccc2c1 [Product III, 8-[(2-hydroxynaphthalen-1-yl)diazenyl]naphthalene-1,3-disulfonic acid] | 54 | high potential as an antioxidant compared to vitamin C
